# Assay results as given in US11779597B2, “Method of treating Parkinson's and other neurodegenerative diseases” (Vector Vitale IP LLC, priority 2019, dated 2023).
# What was measured:
# peritoneal macrophages = experiment: Metabolic profile of nonsensitized mouse peritoneal macrophages in vitro; assay type: cell-based, mice of c57/B6 line; design: spontaneous production of reactive nitrogen species by PM: dose or concentration left out as unconfirmed
# Description: Materials and methods: Peritoneal macrophages (PM) were isolated from the peritoneal cavity of male mice of c57/B6 line with an average body weight of 22 g without previous sensibilization. The metabolic profile of phagocytes was characterized by the arginine metabolic pathway (by the levels of arginase activity and NO synthesis measured using photocolorimetric methods), the level of formation of intracellular reactive oxygen species (ROS) by esterases and phagocytic activity measured using flow cytometry as well as the levels of NADH and NADPH oxidase activation, as determined in the NBT test. Duration of treatment of a standardized suspension of nonsensitized macrophages from the peritoneal cavity varied depending on the methodological characteristics of metabolic response. A 90 minute exposure to the drugs according to Kim D K, Pfeifer J. Surg Forum. 1977; 28:85-7 was used to analyze their effects on oxidative metabolism and phagocytic activity. An 18 hour exposure according to Lastra M D, et al., J Trace Elem Med Biol. 2001; 15(1):5-10 was used to analyze the effects on arginine metabolic pathway. To analyze the effects of the drugs under study on the induced (stimulated) metabolic activity of phagocytes, the cells were treated with lipopolysaccharide (LPS) from E. coli (Sigma, USA) according to Haddad J J. Mol Immunol. 2009; 47(2-3):205-14. doi: 10.1016/j.molimm.2009.09.034.
# [1] = tested on: circulating monocytes and granulocytes; experiment: Functional and phenotypic properties of circulating phagocytes in LPS rat models; assay type: in vivo; details: animal models of PD
# Description: On the 1st day of the experiment, rats were either operated to model hemi-parkinsonism or sham operated. From the 9th to the 18th day of the experiment, the animals were injected either deuterium-depleted water or the test substance, according to their allocation into groups, for 10 days. On the 8th day of the experiment (before initiation of treatment—apomorphine test I) and on the 21st day of the experiment (after the end of administering the test substance —apomorphine test II) the animals underwent an apomorphine test to analyze the development of hemi-parkinsonism which correlates with the number of destroyed dopaminergic neurons. In addition, a follow-up analysis of fecal water content was carried out, i.e., before the start of treatment on the 8th day after the operation, as well as on the 21st (after the end of treatment) and the 28th day (before autopsy). On the 24th day of the experiment, behavioral tests were carried out in all groups. All animals were weighed before autopsy. […]
# To assess the anti-inflammatory and immunomodulating effects of the test substance, microglia and peritoneal macrophages were isolated. Phenotypic and functional features of peripheral blood phagocytes were evaluated without their fractioning (using whole blood). […]
# Phagocytic activity of microglia, peritoneal macrophages and peripheral blood phagocytes was analyzed on a flow cytometer using FITC-labeled S. aureus Wood 46 cells as an object of phagocytosis. […]
# Oxidative metabolism of phagocytes of various localization was analyzed by flow cytometry using the cell-permeant 2′7′-dichlorodihydrofluorescein-diacetate (DHP) (carboxy-H2DCFDA, Invitrogen, USA) which is converted by intracellular esterases to the nonfluorescent membrane-impermeable carboxy-H2DCF form.
# The phenotypic profile of phagocytes of various localization was characterized by the expression of markers of functional maturity and metabolic polarization (CD206, CD80 and CD86), which was determined by flow cytometry and the use of monoclonal antibodies of appropriate specificity marked with fluorescent dyes (Abcam, Becton Dickinson).
# [2] = tested on: LPS rat models of Parkinson's disease; experiment: Open field test; assay type: in vivo
# From the text: Method. The open field test is a technique commonly used to measure locomotor activity of rodents and their level of exploratory activity in an unfamiliar environment, as well as assess the levels of fear of novelty, anxiety or an increase in orientation response in rodents (Denenberg V H, et al., Physiology and Behavior, 1969; 4:403-406; Pellow S et al., J Neurosci Methods. 1985; 14(3):149-67). Behavioral patterns measured in the open field test include: distance travelled in the outer and inner perimeter, duration of time spent in the outer and inner perimeter, the total distance travelled and a percentage of the number of internal squares crossed compared to the total number of squares.
# The open field was a square chamber 100×100 cm in size and with walls 60 cm high. The chamber was illuminated by two LED bulbs, 60 watts each, hanging at a height of 2 m. An IP camera was used to record the rodent movement. The MATLAB-based software was used to analyze the parameters. The statistical analysis was performed using GraphPad Prism. Significance was set at <0.005. The data collected from the open field were analyzed using One-way ANOVA (Tukey test or Dunnett test) and Unpaired t-test or Mann-Whitney.
# Data analysis and interpretation. A novel environment in which an animal finds itself evokes conflict between fear and a desire to explore this environment. These two behavioral tendencies are characterized by different temporal variations and different spatial advantages. In the analysis, an arena is divided into two zones: inner and outer. The total locomotor activity and time spent in the inner and outer zones are the most significant parameters for assessing the levels of anxiety in rats. […] An increase in attendance of the inner zone is interpreted as a decreased anxiety in the animal. The emotional and exploratory behavior of an animal can be affected by various disorders in such brain regions as the hippocampus and the amygdala. In addition, various substances that have anxiolytic, stimulating and muscle relaxant effects can influence the results of the experiment. FIG. 50A and FIG. 50B show an example of analysis of a rat trajectory in the experimental arena.
# On the 1st day of the experiment, rats were either operated to model hemi-parkinsonism or sham operated. From the 9th to the 18th day of the experiment, the animals were injected either deuterium-depleted water or the test substance, according to their allocation into groups, for 10 days. On the 8th day of the experiment (before initiation of treatment—apomorphine test I) and on the 21st day of the experiment (after the end of administering the test substance —apomorphine test II) the animals underwent an apomorphine test to analyze the development of hemi-parkinsonism which correlates with the number of destroyed dopaminergic neurons. In addition, a follow-up analysis of fecal water content was carried out, i.e., before the start of treatment on the 8th day after the operation, as well as on the 21st (after the end of treatment) and the 28th day (before autopsy). On the 24th day of the experiment, behavioral tests were carried out in all groups. All animals were weighed before autopsy. During autopsy, ⅔ of animals from each group were sacrificed by cervical dislocation and brain and blood samples were collected for further biochemical and immunological tests. ⅓ of the animals were used for further immunohistochemical studies of the brain; for this purpose, under anesthesia, a procedure of fast, controlled and uniform fixation of the whole body of the animal was performed using 4% paraformaldehyde perfused through the heart of the rat to obtain the best preservation of the brain architecture for immunohistochemistry. Gage G J, et al., J Vis Exp. 2012 Jul. 30; (65).
# [3] = tested on: LPS rat models of Parkinson's disease; experiment: Pick-up test; assay type: in vivo; details: group V (LPS+^64Zn-asp) versus group IV (LPS)
# From the text: The pick-up test is a test for increased irritability. The animal is picked up by grasping around the body. Responses were scored as 1, very easy; 2, easy with vocalizations; 3, some difficulty, the rat rears and faces the hand; 4, the rat freezes (with or without vocalization); 5, difficult, the rat avoids the hand by moving away; and 6, very difficult, the rat behaves defensively, and may attack the hand.
# On the 1st day of the experiment, rats were either operated to model hemi-parkinsonism or sham operated. From the 9th to the 18th day of the experiment, the animals were injected either deuterium-depleted water or the test substance, according to their allocation into groups, for 10 days. […] On the 24th day of the experiment, behavioral tests were carried out in all groups.
substance,measurement,setting,value
^64Zn-enriched zinc aspartate [^64Zne-asp],ROS generation compared with LPS treatment,"peritoneal macrophages; 10 μg/ml, 90 min",more expressive stimulation
same,NO synthesis by bacterial LPS-stimulated PM,peritoneal macrophages; 18-hour exposure,statistically significant reduction
same,spontaneous production of reactive nitrogen species by PM,peritoneal macrophages; 18-hour exposure,statistically significant inhibition
same,arginase activity of PM,peritoneal macrophages; 18-hour treatment,multidirectional weak effect
same,phagocytic activity of nonsensitized PM,peritoneal macrophages; 90 min exposure,did not have a significant effect
same,spontaneous and LPS-stimulated ROS production by macrophages,peritoneal macrophages; 90 min treatment,moderate stimulating effect
same,spontaneous or induced activation of NADH and NADPH oxidases (NBT test),peritoneal macrophages; 90 min treatment,did not have a statistically significant effect
same,"expression levels of all three markers (CD206, CD80, CD86) by circulating phagocytes",[1],increase
same,functional reserve of oxidative metabolism of circulating phagocytes,[1],restore
same,oxidative metabolism of circulating phagocytes of both populations,[1],sharply reduced
same,frequency of defecations (in words),[2]; LPS + ^64Zn-asp versus LPS + deuterium-depleted water,increased
same,Number of defecations,"[2]; LPS + ^64Zn-asp, Gr. V",7 ± 2.582
same,Number of groomings,"[2]; LPS + ^64Zn-asp, Gr. V",3.5 ± 1.354
same,Number of rearings,"[2]; LPS + ^64Zn-asp, Gr. V",14.4 ± 6.687
same,Time spent in the inner perimeter,"[2]; LPS + ^64Zn-asp, Gr. V",9.235 ± 9.344 s
same,Time spent in the outer perimeter,"[2]; LPS + ^64Zn-asp, Gr. V",290.8 ± 9.333 s
same,"Total distance travelled, cm","[2]; LPS + ^64Zn-asp, Gr. V",1056 ± 423 cm
same,"levels of locomotor activity, anxiety or irritability (summary of behavioral tests)",[2]; findings of Example 7,no significant effects
same,"total distance travelled, time in outer and inner perimeter, number of rearings and groomings (in words)",[2]; group V (LPS+^64Zn-asp) versus group IV (LPS),did not have any effect
same,irritation in the pick-up test,[3],statistically significant elevation
